Data taken from patent US6596778B1, “β-endorphin peptides for treating muscle-wasting diseases” (The University of Birmingham, priority 1997, dated 2003).
pEC50: −log10 of the molar value. Where a SMILES comes first, the peptide text is derived from it. Where no end group is shown, it is not given here. [ ]: non-standard residue; d: D form. Sar = CNCC(=O)O

Legend:
[1] = tested on: mouse diaphragm muscle; type: cell-based, mice, C57BL/6j strain; settings: for blockade of the agonist's/peptide's effect on contractile responses by BNTX (d1-opioid antagonist): BNTX 2.5×10^−7 M; for blockade of the agonist's/peptide's effect on contractile responses by BNTX (d1-opioid antagonist) / blockade of the agonist's/peptide's effect on contractile responses by NTB (d2-opioid antagonist): agonist/peptide 2.5×10^−7 M; for blockade of the agonist's/peptide's effect on contractile responses by NTB (d2-opioid antagonist): NTB 2.5×10^−7 M; for blockade of the peptide's effect on contractile responses by naloxone: naloxone 2.5×10^−6 M; for blockade of the peptide's effect on contractile responses by naloxone / 1/2 relaxation time / Time to peak: peptide 2.5×10^−7 M; for 1/2 relaxation time / Time to peak: low frequency indirect stimulation, mean ± S.E.M.
Method: (§1) Adult female mice, 3-4 months of age, of the C57BL/6j strain were killed by cervical dislocation and the skin and musculature around the rib cage were removed. The diaphragm and part of the rib cage were carefully dissected out along with a length of the left phrenic nerve. The left hemidiaphragm (together with the left phrenic nerve stump) was pinned out in an organ bath containing oxygenated Krebs solution which was gassed continuously with 95% O2-5% CO2 at room temperature (approximately 20° C.) as described in Khan, S.; Smith, M. E., Muscle Nerve, 18, 1250-1256; 1995. The central tendon was attached with the aid of a silk thread to a force transducer (Dynamometer, model UF1), and the phrenic nerve was introduced into the end of a suction electrode for indirect stimulation.
The phrenic nerve was stimulated continuously at a low frequency (0.5 Hz) with supramaximum square wave pulses of 0.2 msec width using a dual channel stimulator (Digitimer D4030). The muscle was allowed to equilibrate until the responses of the stimulated muscle had reached a constant amplitude (approximately 20 min). Krebs solution ([…]), or a solution ([…]) of the appropriate peptide, was added to the centre of the organ bath whilst the contractions were being recorded.
(§2) Direct stimulation of the muscle was effected by two stainless steel needle electrodes placed near the centre of the hemidiaphragm. The position of the force transducer was adjusted until a constant resting tension was seen. When direct stimulation of the muscle was employed d-tubocurarine chloride (2.5×10^−6M) was included in the bathing medium to block the acetylcholine (ACh) receptors and prevent indirect stimulation of the muscles via the motor nerve terminals. The phrenic nerve was stimulated continuously at 0.5 Hz, d-tubocurarine was added to the organ bath, and then, when the responses to nerve stimulation had ceased, the muscle was subjected to continuous direct supramaximum stimulation at a frequency of 0.5 Hz. […] The amplitude, time to peak and half relaxation time of the contractions developed in response to indirect and direct stimulation were determined. The half-relaxation time of the contractions was expressed as the time taken for the tension to decline from the maximum amplitude to half maximum. The dose-response curves were analyzed using a Kaloidograph software package to determine the values for EC50 and maximum response. The significance of the results was determined, unless otherwise stated, using ANOVA, with treatment as the grouping factor, followed by the Bonferroni-Dunn post hoc test.

[2] = tested on: mouse diaphragm muscle; assay: Contractions of hemidiaphragm in response to nerve stimulation in the presence of neostigmine sulphate; type: cell-based, mice, C57BL/6j strain; settings: neostigmine sulphate 10^−5 M, peptide 10^−7 M; mean ± S.E.M.
Method: as §1
The phrenic nerve was stimulated continuously at a low frequency (0.5 Hz) with supramaximum square wave pulses of 0.2 msec width using a dual channel stimulator (Digitimer D4030). The muscle was allowed to equilibrate until the responses of the stimulated muscle had reached a constant amplitude (approximately 20 min). Krebs solution ([…]), or a solution ([…]) of the appropriate peptide, was added to the centre of the organ bath whilst the contractions were being recorded. […]

[3] = tested on: mouse diaphragm muscle; assay: Contractions of hemidiaphragm in response to direct stimulation of the muscle in the presence of d-tubocurarine; type: cell-based, mice, C57BL/6j strain; settings: peptide 2.5×10^−8 M, mean ± S.E.M.
Method: as §1
as §2, with “terminals.” for “terminals. The phrenic nerve was stimulated continuously at 0.5 Hz, d-tubocurarine was added to the organ bath, and then, when the responses to nerve stimulation had ceased, the muscle was subjected to continuous direct supramaximum stimulation at a frequency of 0.5 Hz.”, “test. […]” for “test.”

[4] = tested on: dystrophic mice; assay: Chronic intravenous injection in dystrophic mice (body weight, EDL muscle weight, CPK in blood and muscle); type: in vivo
Method: In one series of experiments, the C-terminal peptide, glycylglutamine, was injected intravenously into the blood of dystrophic mice 4 to 5 times a week in an amount of approximately 1.5 microgram/g body weight each time over a seven week period. Control mice were injected with the same volume of saline at the same times. There were six mice in each group.
The following measurements were made:
1. Change in body weight (the dystrophic mice would usually not gain significant weight over seven weeks and might even lose weight-depending on their age).
2. Weight of the extensor digitorum longus (EDL) muscle.
3. Level of CPK in the blood (a diagnostic test for muscular dystrophy is to measure the level of CPK in the blood. In muscle diseases, the blood levels of enzymes such as CPK are elevated and in muscular dystrophy the levels can be very high).
4. CPK enzyme levels in the muscle.

[5] = tested on: CPK leakage into the blood; settings: intravenous injection of β-endorphin alone; cited from earlier work
[6] = indirect stimulation 0.5 Hz, mean ± SEM

| Compound | effect on the amplitude of the contractions (in words) ([1]; indirect stimulation 0.5 Hz) | blockade of the agonist's/peptide's effect on contractile responses by NTB (d2-opioid antagonist) [1] | maximum increase in the response [1, 6] | blockade of the peptide's effect on contractile responses by naloxone [1] | 1/2 relaxation time [1] | Time to peak [1] | tension developed, % of the control values (absence of added peptide) [3] | also measured |
| --- | --- | --- | --- | --- | --- | --- | --- | --- |
| N-Acetyl β-endorphin (Ac-YGGFMTSEKSQTPLVTLFKNAIIKNAYKKGE; UniProt P01189 237-267, looked up) | no significant effect | – | – | – | – | – | – | responses in the presence of the peptide ([1]; three preparations, concentration not given, mean ± SEM): 101.5±0.7% |
| β-Endorphin 1-16 (YGGFMTSEKSQTPLVT; Beta-endorphin; UniProt P01189 237-252, looked up, fragment) [β-endorphin fragment (α-endorphin)] | no significant effect | – | – | – | – | – | – | tension developed, % of the control tension ([1]; peptide 10^−6 M, indirect stimulation): 102.0±0.2% |
| Ac-K[dK][Sar]E [β-endorphin28-31 analogue] | immediate increase | Neither naloxone, BNTX, nor NTB blocked | 16.7±0.9% | Neither naloxone, BNTX, nor NTB blocked | 102.8 ± 2.6 percentage of the untreated controls | 95.9 ± 0.3 percentage of the untreated controls | 100±1.1% | blockade of the agonist's/peptide's effect on contractile responses by BNTX (d1-opioid antagonist) [1]: Neither naloxone, BNTX, nor NTB blocked; duration of the effect on amplitude after addition of the peptide ([1]; indirect stimulation): at least 6 minutes; lowest concentration at which significant increases in contractile responses were seen ([1]; indirect stimulation): 10^−10 M; tension developed in the presence of neostigmine sulphate [2]: 103.4±1.0% |
| NCC(=O)N[C@@H](CCC(N)=O)C(=O)O [glycylglutamine, glycyl-L-glutamine] (H-Gly-Gln-OH) | immediate increase | Neither naloxone, BNTX, nor NTB blocked | 18.5±1.5% | Neither naloxone, BNTX, nor NTB blocked | – | – | 98.7±0.9% | increase in body weight ([4]; i.v. approximately 1.5 microgram/g 4 to 5 times a week, seven week period, statistically significant): approximately 12%; reduction of CPK level in the blood ([4]; i.v. approximately 1.5 microgram/g 4 to 5 times a week, seven weeks): 25%; increase in EDL muscle weight ([4]; i.v. approximately 1.5 microgram/g 4 to 5 times a week, seven weeks, not statistically significant): approximately 5%; increase of enzyme (CPK) concentration in the EDL muscle ([4]; seven weeks, calculated on a wet weight basis): 55%; blockade of the agonist's/peptide's effect on contractile responses by BNTX (d1-opioid antagonist) [1]: Neither naloxone, BNTX, nor NTB blocked; lowest concentration at which significant increases in contractile responses were seen ([1]; indirect stimulation): 10^−10 M |
| β-endorphin1-27 (YGGFMTSEKSQTPLVTLFKNAIIKNAY; Beta-endorphin; UniProt P01189 237-263, looked up, fragment) | immediate increase | neither | not maximum even at 10^−6 M | had no effect on the amplitude of the contractions | 99.4 ± 0.4 percentage of the untreated controls | 98.1 ± 0.4 percentage of the untreated controls | 99.6±0.5% | tension developed in the presence of neostigmine sulphate [2]: 102.3±1.2% |
| CC(C)[C@H](NC(=O)[C@H](CCC(=O)O)NC(=O)[C@H](Cc1ccccc1)NC(=O)[C@@H](C)NC(=O)[C@@H](N)Cc1ccc(O)cc1)C(=O)N[C@H](C(=O)NCC(N)=O)C(C)C [deltorphin II] | – | – | – | – | – | – | – | pEC50 ([1]; indirect stimulation 0.5 Hz, room temperature, read-out: EC50 for increase in contractile response): 9.70 |
| CC[C@H](C)[C@H](NC(=O)[C@H](C)NC(=O)[C@H](CC(N)=O)NC(=O)[C@H](CCCCN)NC(=O)[C@H](Cc1ccccc1)NC(=O)[C@H](CC(C)C)NC(=O)[C@@H](NC(=O)[C@@H](NC(=O)[C@H](CC(C)C)NC(=O)[C@@H]1CCCN1C(=O)[C@@H](NC(=O)[C@H](CCC(N)=O)NC(=O)[C@H](CO)NC(=O)[C@H](CCCCN)NC(=O)[C@H](CCC(=O)O)NC(=O)[C@H](CO)NC(=O)[C@@H](NC(=O)[C@H](CCSC)NC(=O)[C@H](Cc1ccccc1)NC(=O)CNC(=O)CNC(=O)[C@@H](N)Cc1ccc(O)cc1)[C@@H](C)O)[C@@H](C)O)C(C)C)[C@@H](C)O)C(=O)N[C@H](C(=O)N[C@@H](CCCCN)C(=O)N[C@@H](CC(N)=O)C(=O)N[C@@H](C)C(=O)N[C@@H](Cc1ccc(O)cc1)C(=O)N[C@@H](CCCCN)C(=O)N[C@@H](CCCCN)C(=O)NCC(=O)N[C@@H](CCC(=O)O)C(=O)O)[C@@H](C)CC [β-endorphin] | immediate increase | neither | 34.4±2.9% | complete blockade | 99.6 ± 0.3 percentage of the untreated controls | 94.1 ± 0.5 percentage of the untreated controls | – | effect in preventing CPK leakage into the blood [5]: little effect |
| N[C@@H](CCC(=O)O)C(=O)O [L-glutamic acid] | no effect | – | – | – | – | – | – | – |
